# Measured values from patent US20050272036A1, “Ketones” (priority 2002, published 2005).
# Target: T1, human 11βHSD1 enzyme (Homo sapiens, UniProt P28845)
# T1 construct: a construct containing full-length human 11βHSD1 enzyme (in pCMVHyg); expressed in transfected cells
# Test: HeLa GRE4-βGal/11βHSD1 cell reporter assay (cortisone to cortisol, β-galactosidase readout)
# Format: cell-based
# Settings: HeLa GRE4-βGal/11βHSD1 cells, cortisone 1 μM, overnight incubation, absorbance at 570 nm
# Description: HeLa cells (human cervical carcinoma derived cells) were stably transfected with a construct containing four copies of the glucocorticoid response element (GRE) linked to a beta-galactosidase reporter gene (3 kb lac Z gene derived from pSV-B-galactosidase). These cells were then further stably transfected with a construct containing full-length human 11βHSD1 enzyme (in pCMVHyg) to create GRE4-βGal/11βHSD1 cells. The principal of the assay is as follows. Cortisone is freely taken up by the cells and is converted to cortisol by 11βHSD1 oxo-reductase activity and cortisol (but not cortisone) binds to and activates the glucocorticoid receptor. Activated glucocorticoid receptor then binds to the GRE and initiates transcription and translation of β-galactosidase. Enzyme activity can then be assayed with high sensitivity by colourimetric assay.
# Cells were routinely cultured in DMEM (Invitrogen, Paisley, Renfrewshire, UK) containing 10% foetal calf serum (LabTech), 1% glutamine (Invitrogen), 1% penicillin & streptomycin (Invitrogen), 0.5 mg/ml G418 (Invitrogen) & 0.5 mg/ml hygromycin (Boehringer). Assay media was phenol red free-DMEM containing 1% glutamine, 1% penicillin & streptomycin.
# Compounds (1 mM) to be tested were dissolved in dimethyl sulphoxide (DMSO) and serially diluted into assay media containing […]. […]
# A cocktail (25 μl) consisting of 10× Z-buffer (600 mM Na2HPO4, 400 mM NaH2PO4.2H2O, 100 mM KCl, 10 MM MgSO4.7H2O, 500 mM β-mercaptoethanol, pH 7.0), SDS (0.2%), chlorophenol red-β-D-galactopyranoside (5 mM, Roche Diagnostics) was added per well and plates incubated at 37° C. for 3-4 hours. β-Galactosidase activity was indicated by a yellow to red colour change (absorbance at 570 nm) measured using a Tecan Spectrafluor Ultra.
# The calculation of median inhibitory concentration (IC50) values for the inhibitors was performed using Origin 6.0 (Microcal Software, Northampton Mass. USA). Dose response curves for each inhibitor were plotted as OD units at each inhibitor concentration with relation to a maximum signal (cortisone, no compound) and IC50 values calculated. […]
# T1 sequence (P28845 whole entry): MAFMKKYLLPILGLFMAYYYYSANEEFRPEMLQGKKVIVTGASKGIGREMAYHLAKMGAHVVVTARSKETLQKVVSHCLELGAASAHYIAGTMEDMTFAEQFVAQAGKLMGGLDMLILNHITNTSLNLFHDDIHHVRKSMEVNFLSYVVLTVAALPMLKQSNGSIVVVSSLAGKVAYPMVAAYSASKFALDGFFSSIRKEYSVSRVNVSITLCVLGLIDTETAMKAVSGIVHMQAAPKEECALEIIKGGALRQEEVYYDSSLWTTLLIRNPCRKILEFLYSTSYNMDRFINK
row,Compound,IC50 [nM]
1,"Cc1ccc(C(=O)Cc2ccsc2)cc1 [Example 3, (Thien-3-ylmethyl)-(4-methylphenyl)-ketone]",76.8
2,"O=C(CS(=O)(=O)N1CCCC1)c1ccc(F)cc1 [Example 79, (4-Fluorophenyl)-(pyrrolidin-1-ylsulphonylmethyl)-ketone]",93.5
3,"CC(=O)Nc1ccc(OCC(=O)c2ccc(Cl)cc2)cc1 [Example 155, (4-Chlorophenyl)-(4-acetylaminophenoxymethyl)-ketone]",153

# Test system: not given
# Test: not given
# Settings: not given
row,Compound,melting point [°C]
1,Cc1ccc(CC(C(=O)c2ccccc2)N2CCCCC2)cc1 (centres unmarked),71 to 72
2,"O=C(Cc1ccc(Cl)c(Cl)c1)c1ccc(Cl)cc1 [Example 4, (4-Chlorophenyl)-(3,4-dichlorophenylmethyl)-ketone]",99 to 103
3,"O=C(Cn1cnc2ccccc21)c1ccc(Cl)cc1Cl [Example 7, (Benzimidazol-1-ylmethyl)-(2,4-dichlorophenyl)-ketone]",130 to 132
4,"O=C(c1cccnc1)C(Cc1ccc(F)cc1)c1ccccc1 (stereo not drawn) [Example 10, [α-(4-Fluorobenzyl)benzyl]-(pyrid-3-yl)-ketone]",100 to 102
5,"O=C(c1ccccc1)C(Cc1ccc(Cl)cc1)c1cccnn1 (centres unmarked) [Example 13, [2-(4-Chlorophenyl)-1-(pyridazin-3yl)ethyl]-(phenyl)-ketone]",140 to 142
6,"O=C(CCc1ccc(F)cc1)c1ccc(C(F)(F)F)cc1 [Example 19, (4-Fluorophenethyl)-(4-trifluoromethylphenyl)-ketone]",66 to 67
7,"O=C(CS(=O)(=O)c1ccccc1)c1ccccn1 [Example 100, (Phenylsulphonylmethyl)-(pyrid-2-yl)-ketone]",101 to 103
8,"O=C(Cc1ccc(Br)cc1)c1ccc(Cl)cc1 [RE 3, (4-Bromobenzyl)-(4-chlorophenyl)-ketone]",125 to 126
9,"O=C(Cc1ccc(Cl)cc1)c1ccc(Br)cc1 [Reference Example 3, (4-Bromophenyl)-(4-chlorobenzyl)-ketone]",128 to 129
10,"COc1ccc(C(=O)Cc2ccccc2)cc1 [Reference Example 5, (4-Methoxyphenyl)-(benzyl)-ketone]",68 to 69
11,"Cc1ccc(C(=O)Cc2ccccc2)cc1 [Reference Example 11, (Benzyl)-(4-methylphenyl)-ketone]",107 to 111
12,"O=C(c1ccc(Cl)cc1)C(Cn1cncn1)c1ccc(Cl)cc1 (stereo not drawn) [Reference Example 16, (4-Chlorophenyl)-[α-(1,2,4-triazol-1-ylmethyl)-4-chlorobenzyl]-ketone]",126 to 128
13,"Cc1ccc(C(=O)CCc2ccc(N3CCN(c4ccncc4)CC3)cc2)cc1 [Reference Example 55, {4-[1-(Pyrid-4-yl)piperazin-4-yl]phenethyl}-(4-methylphenyl)-ketone]",114 to 115

# Test system: Pancreatic islets
# Test: not given
# Settings: pancreatic islets (Davani B et al. 2000); cited from earlier work
row,Compound,effects of 11-dehydocorticosterone on insulin release
1,CC1(C)[C@@H](OC(=O)CCC(=O)O)CC[C@]2(C)[C@H]3C(=O)C=C4[C@@H]5C[C@@](C)(C(=O)O)CC[C@]5(C)CC[C@@]4(C)[C@]3(C)CC[C@@H]12 [carbenoxolone],can inhibit the effects of 11-dehydocorticosterone on insulin release
